Reference: article PMC8540742, “New N-Substituted-1,2,4-triazole Derivatives of Pyrrolo[3,4-d]pyridazinone with Significant Anti-Inflammatory Activity—Design, Synthesis and Complementary In Vitro, Computational and Spectroscopic Studies” (International Journal of Molecular Sciences, 2021)

Biological target: T1, bovine serum albumin (BSA) (Bos taurus, UniProt P02769)
T1 construct: gene ALB; commercial native serum albumin (Sigma Aldrich, named for the FT-IR work), mature protein 583 residues, no tags
T1 sequence (P02769 25-607): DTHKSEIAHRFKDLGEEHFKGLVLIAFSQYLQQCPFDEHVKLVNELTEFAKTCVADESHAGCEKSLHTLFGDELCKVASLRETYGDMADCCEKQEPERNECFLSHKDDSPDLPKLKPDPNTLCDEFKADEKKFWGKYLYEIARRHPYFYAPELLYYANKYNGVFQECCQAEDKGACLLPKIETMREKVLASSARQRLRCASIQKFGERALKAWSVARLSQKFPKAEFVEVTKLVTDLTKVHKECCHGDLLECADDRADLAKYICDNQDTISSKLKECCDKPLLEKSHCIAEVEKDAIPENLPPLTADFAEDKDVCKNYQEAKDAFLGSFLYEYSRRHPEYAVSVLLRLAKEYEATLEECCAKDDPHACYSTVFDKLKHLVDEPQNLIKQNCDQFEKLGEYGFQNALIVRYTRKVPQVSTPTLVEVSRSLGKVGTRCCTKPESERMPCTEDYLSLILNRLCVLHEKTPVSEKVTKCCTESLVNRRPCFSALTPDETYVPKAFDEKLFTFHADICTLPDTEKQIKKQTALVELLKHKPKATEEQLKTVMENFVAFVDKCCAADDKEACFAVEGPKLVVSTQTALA
Assay: intrinsic fluorescence quenching (ex […] nm)
Assay type: binding
Details: […] K, pH […] BSA; static quenching; n about […]; subdomain IIIA by site markers; double-log

Structure (SMILES)	Binding / Kb × 10^4 [dm^3mol^-1]
CCCCn1c(C)c2c(OCc3nn(CN4CCN(c5ccccc5)CC4)c(=S)n3C)nn(C)c(=O)c2c1C [4a, 6-butyl-3,5,7-trimethyl-1-[[4-methyl-2-[(4-phenylpiperazin-1-yl)methyl]-3-thioxo-2H-1,2,4-triazol-5-yl]methoxy]pyrrolo[3,4-d]pyridazin-4-one]	8.91 × 10^4 dm^3 mol^-1
CCCCn1c(C)c2c(OCc3nn(CN4CCN(c5ccccc5)CC4)c(=S)n3-c3ccccc3)nn(C)c(=O)c2c1C [4b, 6-butyl-3,5,7-trimethyl-1-[[4-phenyl-2-[(4-phenylpiperazin-1-yl)methyl]-3-thioxo-2H-1,2,4-triazol-5-yl]methoxy]pyrrolo[3,4-d]pyridazin-4-one]	6.61 × 10^4 dm^3 mol^-1
CCCCn1c(C)c2c(OCc3nn(CN4CCN(c5cccc(C(F)(F)F)c5)CC4)c(=S)n3C)nn(C)c(=O)c2c1C [5a, 6-butyl-3,5,7-trimethyl-1-[[4-methyl-2-[[4-[3-(trifluoromethyl)phenyl]piperazin-1-yl]methyl]-3-thioxo-2H-1,2,4-triazol-5-yl]methoxy]pyrrolo[3,4-d]pyridazin-4-one]	8.13 × 10^4 dm^3 mol^-1
CCCCn1c(C)c2c(OCc3nn(CN4CCN(c5cccc(C(F)(F)F)c5)CC4)c(=S)n3-c3ccccc3)nn(C)c(=O)c2c1C [5b, 6-butyl-3,5,7-trimethyl-1-[[4-phenyl-2-[[4-[3-(trifluoromethyl)phenyl]piperazin-1-yl]methyl]-3-thioxo-2H-1,2,4-triazol-5-yl]methoxy]pyrrolo[3,4-d]pyridazin-4-one]	5.75 × 10^4 dm^3 mol^-1
CCCCn1c(C)c2c(OCc3nn(CN4CCN(c5cccc(C(F)(F)F)c5)CC4)c(=S)n3-c3ccc(OC)cc3)nn(C)c(=O)c2c1C [5c, 6-butyl-1-[[4-(4-methoxyphenyl)-2-[[4-[3-(trifluoromethyl)phenyl]piperazin-1-yl]methyl]-3-thioxo-2H-1,2,4-triazol-5-yl]methoxy]-3,5,7-trimethyl-pyrrolo[3,4-d]pyridazin-4-one]	9.33 × 10^4 dm^3 mol^-1
CCCCn1c(C)c2c(OCc3nn(CN4CCN(c5ccc(C)cc5)CC4)c(=S)n3C)nn(C)c(=O)c2c1C [6a, 6-butyl-3,5,7-trimethyl-1-[[4-methyl-2-[[4-[(4-methyl)phenyl]piperazin-1-yl]methyl]-3-thioxo-2H-1,2,4-triazol-5-yl]methoxy]pyrrolo[3,4-d]pyridazin-4-one]	4.90 × 10^4 dm^3 mol^-1
CCCCn1c(C)c2c(OCc3nn(CN4CCN(c5ccc(C)cc5)CC4)c(=S)n3-c3ccccc3)nn(C)c(=O)c2c1C [6b, 6-butyl-3,5,7-trimethyl-1-[[4-phenyl-2-[[4-[(4-methyl)phenyl]piperazin-1-yl]methyl]-3-thioxo-2H-1,2,4-triazol-5-yl]methoxy]pyrrolo[3,4-d]pyridazin-4-one]	8.13 × 10^4 dm^3 mol^-1
CCCCn1c(C)c2c(OCc3nn(CN4CCN(c5ccc(C)cc5)CC4)c(=S)n3-c3ccc(OC)cc3)nn(C)c(=O)c2c1C [6c, 6-butyl-1-[[4-(4-methoxyphenyl)-2-[[4-[(4-methyl)phenyl]piperazin-1-yl]methyl]-3-thioxo-2H-1,2,4-triazol-5-yl]methoxy]-3,5,7-trimethyl-pyrrolo[3,4-d]pyridazin-4-one]	9.55 × 10^4 dm^3 mol^-1
CCCCn1c(C)c2c(OCc3nnc(SCC(=O)N4CCN(c5ccccc5)CC4)n3C)nn(C)c(=O)c2c1C [7a, 6-butyl-3,5,7-trimethyl-1-[[4-methyl-3-[2-oxo-2-(4-phenylpiperazin-1-yl)ethyl]sulfanyl-2H-1,2,4-triazol-5-yl]methoxy]pyrrolo[3,4-d]pyridazin-4-one]	4.68 × 10^4 dm^3 mol^-1
CCCCn1c(C)c2c(OCc3nnc(SCC(=O)N4CCN(c5ccccc5)CC4)n3-c3ccccc3)nn(C)c(=O)c2c1C [7b, 6-butyl-3,5,7-trimethyl-1-[[4-phenyl-3-[2-oxo-2-(4-phenylpiperazin-1-yl)ethyl]sulfanyl-2H-1,2,4-triazol-5-yl]methoxy]pyrrolo[3,4-d]pyridazin-4-one]	9.33 × 10^4 dm^3 mol^-1
CCCCn1c(C)c2c(OCc3nnc(SCC(=O)N4CCN(c5ccccc5)CC4)n3-c3ccc(OC)cc3)nn(C)c(=O)c2c1C [7c, 6-butyl-3,5,7-trimethyl-1-[[4-(4-methoxy)phenyl-3-[2-oxo-2-(4-phenylpiperazin-1-yl)ethyl]sulfanyl-2H-1,2,4-triazol-5-yl]methoxy]pyrrolo[3,4-d]pyridazin-4-one]	9.33 × 10^4 dm^3 mol^-1
